Measurements as given in ChEMBL document CHEMBL3112408, “1,2,3-triazole-, arylamino- and thio-substituted 1,4-naphthoquinones: potent antitumor activity, electrochemical aspects, and bioisosteric replacement of C-ring-modified lapachones” (Bioorg Med Chem, 2014).

What was measured:
HL-60 = experiment: Cytotoxicity against human HL60 cells assessed as cell viability after 72 hrs by MTT assay; type: functional, cell-based; conditions: HL-60, 72 h
[1] = Cytotoxicity against human Hs578T cells assessed as cell viability after 72 hrs by MTT assay; type: functional, cell-based; conditions: Hs-578T
MX1 = experiment: Cytotoxicity against human MX1 cells assessed as cell viability after 72 hrs by MTT assay; type: functional, cell-based; conditions: MX1, 72 h
V79 = experiment: Cytotoxicity against chinese hamster V79 cells assessed as cell viability after 72 hrs by MTT assay; type: cell-based; conditions: Cricetulus griseus, V79, 72 h
PBMC = experiment: Cytotoxicity against human PBMC assessed as cell viability after 72 hrs by MTT assay; type: cell-based
OVCAR-8 = experiment: Cytotoxicity against human OVCAR8 cells assessed as cell viability after 72 hrs by MTT assay; type: functional, cell-based; conditions: OVCAR-8, 72 h
MDA-MB-435 = experiment: Cytotoxicity against human MDA-MB-435 cells assessed as cell viability after 72 hrs by MTT assay; type: functional, cell-based; conditions: MDA-MB-435, 72 h
[2] = Cytotoxicity against human HCT8 cells assessed as cell viability after 72 hrs by MTT assay; type: functional, cell-based; conditions: HCT-8, 72 h
MCF7 = experiment: Cytotoxicity against human MCF7 cells assessed as cell viability after 72 hrs by MTT assay; type: functional, cell-based; conditions: MCF7, 72 h
L929 = experiment: Cytotoxicity against mouse L929 cells assessed as cell viability after 72 hrs by MTT assay; type: ADME, cell-based; conditions: L929, 72 h
DU-145 = experiment: Cytotoxicity against human DU145 cells assessed as cell viability after 72 hrs by MTT assay; type: functional, cell-based; conditions: DU-145, 72 h
HCT-116 = experiment: Cytotoxicity against human HCT116 cells assessed as cell viability after 72 hrs by MTT assay; type: functional, cell-based; conditions: HCT-116, 72 h
PC-3 = experiment: Cytotoxicity against human PC3 cells assessed as cell viability after 72 hrs by MTT assay; type: functional, cell-based; conditions: PC-3, 72 h
SF-295 = experiment: Cytotoxicity against human SF295 cells assessed as cell viability after 72 hrs by MTT assay; type: functional, cell-based; conditions: SF-295, 72 h

SMILES | IC50 (HL-60) | IC50 [1] | IC50 (MX1) | IC50 (V79) | IC50 (PBMC) | IC50 (OVCAR-8) | IC50 (MDA-MB-435) | IC50 [2] | IC50 (MCF7) | IC50 (L929) | IC50 (DU-145) | IC50 (HCT-116) | IC50 (PC-3) | IC50 (SF-295)
O=C1C(Br)=C(NCc2cn(CN3C(=O)c4ccccc4C3=O)nn2)C(=O)c2ccccc21 | > 10 µM | > 10 µM | > 10 µM | > 10 µM | > 10 µM | > 10 µM | > 10 µM | > 10 µM | > 10 µM | > 10 µM | > 10 µM | > 10 µM | > 10 µM | > 10 µM
O=C1C=C(NCc2cn(CCCCN3C(=O)c4ccccc4C3=O)nn2)C(=O)c2ccccc21 | > 10 µM | > 10 µM | > 10 µM | > 10 µM | > 10 µM | > 10 µM | > 10 µM | > 10 µM | > 10 µM | > 10 µM | > 10 µM | > 10 µM | > 10 µM | > 10 µM
O=C1C=C(NCc2cn(CN3C(=O)c4ccccc4C3=O)nn2)C(=O)c2ccccc21 | > 12 µM | > 12 µM | > 12 µM | > 12 µM | > 12 µM | > 12 µM | > 12 µM | > 12 µM | > 12 µM | > 12 µM | > 12 µM | > 12 µM | > 12 µM | > 12 µM
O=C1C=C(n2cc(CNC3=C(Cl)C(=O)c4ccccc4C3=O)nn2)C(=O)c2ccccc21 | 3.42 µM | 4.68 µM | 4.02 µM | 7.1 µM | 10.2 µM | 6.02 µM | 3.33 µM | 7.08 µM | 7.76 µM | 6.83 µM | 4.92 µM | 6.65 µM | 5.42 µM | 5.55 µM
CC1(C)OC2=C(C(=O)c3ccccc3C2=O)C1n1cc(C2CCCCC2)nn1 (configuration not stated) | 2.7 µM | 4.95 µM | 4.21 µM | 6.12 µM | 7.36 µM | 5.38 µM | 2.76 µM | 6.7 µM | 5.78 µM | 6.62 µM | 5.48 µM | 5.51 µM | 4.29 µM | 3.18 µM
O=C1C(Br)=C(NCc2cn(-c3cccc([N+](=O)[O-])c3)nn2)C(=O)c2ccccc21 | > 11 µM | > 11 µM | > 11 µM | > 11 µM | > 11 µM | > 11 µM | > 11 µM | > 11 µM | > 11 µM | > 11 µM | > 11 µM | > 11 µM | > 11 µM | > 11 µM
COc1ccc(NC2CC(C)(C)OC3=C2C(=O)c2ccccc2C3=O)cc1 (configuration not stated) | 0.19 µM | 0.69 µM | 0.52 µM | 0.96 µM | 1.76 µM | 0.44 µM | 0.58 µM | 0.47 µM | 1.02 µM | 0.74 µM | 0.88 µM | 0.33 µM | 0.55 µM | 0.74 µM
O=C1C(Cl)=C(NCc2cn(CN3C(=O)c4ccccc4C3=O)nn2)C(=O)c2ccccc21 | > 11 µM | > 11 µM | > 11 µM | > 11 µM | > 11 µM | > 11 µM | > 11 µM | > 11 µM | > 11 µM | > 11 µM | > 11 µM | > 11 µM | > 11 µM | > 11 µM
O=C1C(Cl)=C(NCc2cn(CCN3C(=O)c4ccccc4C3=O)nn2)C(=O)c2ccccc21 | > 10 µM | > 10 µM | > 10 µM | > 10 µM | > 10 µM | > 10 µM | > 10 µM | > 10 µM | > 10 µM | > 10 µM | > 10 µM | > 10 µM | > 10 µM | > 10 µM
O=C1C=C(NCc2cn(-c3cccc([N+](=O)[O-])c3)nn2)C(=O)c2ccccc21 | > 13 µM | > 13 µM | > 13 µM | > 13 µM | > 13 µM | > 13 µM | > 13 µM | > 13 µM | > 13 µM | > 13 µM | > 13 µM | > 13 µM | > 13 µM | > 13 µM
CC1(C)CC(Nc2ccc([N+](=O)[O-])cc2)C2=C(O1)C(=O)c1ccccc1C2=O (configuration not stated) | 4.26 µM | 5.95 µM | 5.52 µM | 1.61 µM | 2.01 µM | 6.66 µM | 5.42 µM | 4.97 µM | 7.16 µM | 1.37 µM | 6.13 µM | 5.66 µM | 5.79 µM | 5.95 µM
CCCCCCc1cn(C2C3=C(OC2(C)C)C(=O)c2ccccc2C3=O)nn1 (configuration not stated) | 1.9 µM | 8.28 µM | 7.33 µM | 7.22 µM | 9.01 µM | 5.35 µM | 3.98 µM | 5.32 µM | 9.41 µM | 8.3 µM | 9.88 µM | 4.88 µM | 10.2 µM | 11.2 µM
O=C1C(Br)=C(NCc2cn(CCCN3C(=O)c4ccccc4C3=O)nn2)C(=O)c2ccccc21 | > 9 µM | > 9 µM | > 9 µM | > 9 µM | > 9 µM | > 9 µM | > 9 µM | > 9 µM | > 9 µM | > 9 µM | > 9 µM | > 9 µM | > 9 µM | > 9 µM
